d = 2'-deoxy (DNA); r = 2'-OH (RNA)
Experiments:
[1] = test system: human colon cancer RKO cell line; assay: Cell proliferation assay (WST-1) in RKO cells; assay type: cell-based; settings: 6 hr exposure then 96 hr growth, mean ± S.D., at least 3 experiments
Experimental: RKO cells were plated in 96-well plates at a density of 800 cells/well. On the following day, cells were incubated with ssiRNA/LF2000 complexes for 6 hr, after which time, the growth medium was replaced, and cells were grown for an additional 96 hr. Similarly, RKO cells were treated with FdU (#F0503, Sigma) for 6 hr followed by medium replacement and then allowed to grow for an additional 96 hr. Cell proliferation/viability was quantified by the WST-1 assay (Roche; Indianapolis, Ind.).

[2] = test system: human colon cancer RKO cell line; assay: Clonogenic assay in RKO cells; assay type: cell-based; settings: 6 hr exposure, colonies counted after 8 days, mean ± S.D., at least 3 experiments
Experimental: RKO cells were plated in 6-well plates at a density of 600 cells/well. On the following day, cells were transfected with ssiRNA/LF2000 complexes for 6 hr after which time, the growth medium was replaced. Similarly, FdU was added to wells for 6 hr followed by medium replacement. After 8 days, cell colonies were fixed with Trypan blue solution (75% methanol/25% acetic acid/0.25% trypan blue), washed, and air-dried before counting colonies >50 cells.

[3] = test system: GC3/TK− cells; assay: Cell proliferation (WST-1) in thymidine kinase-deficient GC3/TK− cells; assay type: cell-based, human; settings: 6 hr transfection, additional 5 days
Experimental: FIGS. 2A-B illustrate the effect of TK knockdown on the cytotoxicity of the FdU-modified ssiRNA. (A) RKO cells were transfected with 1 nM TK siRNA (lanes 3 and 4) or Mis-dU/dA (lane 5). After 6 hr, the medium was replaced with fresh medium. On the following day, cells were transfected with TS6-FdU/dA ssiRNA (1 nM) for 6 hr (lanes 2, 4, and 5) after which time, cells were harvested for immunoblot analysis. RKO cells were treated with 5-fluorouracil (5 nM) for 6 hr before harvesting (lane 6). (B) GC3/TK− cells were transfected with various concentrations of TS6-dU/dA or TS6-FdU/dA ssiRNA. After 6 hr, the medium was replaced and after an additional 5 days, cell proliferation was determined with the WST-1 assay;
The human colon cancer RKO cell line, originally obtained from ATCC, has been previously well-characterized and was maintained in RPMI-1640 (Invitrogen; Carlsbad, Calif.) with 10% (v/v) dialyzed fetal bovine serum at 37° C. in a humidified incubator with 5% CO2 (Reference 11). The thymidine kinase-deficient GC3/TK− cells were a gift from Dr. Janet Houghton (Reference 18). Cells were routinely authenticated by morphology and growth curve analysis. […]
RKO cells were plated in 96-well plates at a density of 800 cells/well. […] Cell proliferation/viability was quantified by the WST-1 assay (Roche; Indianapolis, Ind.).

[4] = test system: p53, Fas, cleaved PARP, γH2AX, p-ATM; assay: Immunoblot of DNA damage and apoptosis signaling proteins, time course; assay type: cell-based, human; settings: RKO cells, ssiRNA 10 nM, 0-72 hr
Experimental: FIG. 5 illustrates time-dependent effects of FdU-containing ssiRNAs on protein expression. RKO cells were transfected with various TS6 ssiRNAs (10 nM). After 6 hr, the medium was replaced, and cells were harvested for immunoblot blot analysis at the following times: before39 transfection (pre) and 0, 24, 48, and 72 hr after transfection. Images shown are representative blots from at least 4 different experiments; and
Protein concentrations of cell lysates were determined using the DC Protein Assay (Bio-Rad; Hercules, Calif.). Equal amounts of protein (30 μg) from each cell lysate were resolved on SDS-PAGE using the method of Laemmli (Reference 19) and transferred onto 0.45 μm nitrocellulose membranes (Bio-Rad). Membranes were blocked and incubated overnight with primary antibodies at 4° C. The following antibodies were used in the experiments: anti-TS (Clone 4H4B1; Invitrogen), anti-TS (#5449; Cell Signaling; San Francisco, Calif.), anti-p21 Waf1/Cip1 (#2947; Cell Signaling), anti-p53 (#sc-126; Santa Cruz Biotechnology; Santa Cruz, Calif.), anti-PARP (#9542; Cell Signaling), anti-Fas (#4233; Cell Signaling), anti-phospho-histone H2A.X (Ser139) (#2577; Cell Signaling), anti-histone H2A.X (#7631; Cell Signaling), anti-phospho-ATM (pS1981; EPITOMICS Inc.; Burlingame, Calif.), anti-ATM (#A1106; Sigma), and anti-α-tubulin (EMD Biosciences; San Diego, Calif.). After multiple TBST washes (1×TBS, 0.1% Tween-20), membranes were incubated with corresponding horseradish peroxidase-conjugated secondary antibodies (Bio-Rad) for 1 hr at room temperature. Proteins were detected by the enhanced chemiluminescence method (SuperSignal West Pico substrate; Pierce; Rockford, Ill.). Quantitation of signal intensities was performed by densitometry on a Xerox scanner using NIH IMAGEJ software.

“TS6-dU/dA: unmodified TS-targeted ssiRNA, 5 dU on 3′-end of sense strand, 5 dA on 3′-end of antisense strand; SEQ ID NO: 3 and 4 (sense GGAUAUUGUCAGUCUUUAGGUUUUU; antisense CCUAAAGACUGACAAUAUCCAAAAA; sense: sugars from the 5' end r20 d5, backbone and T or U not given here; antisense: sugars from the 5' end r20 d5, backbone not given here)” gave an IC50 [1] of 81.9 nM, an IC50 [2] of 1.77 nM and an IC50 [3] of 51.4 ± 27.8 nM. The “biomarkers of DNA damage, γH2AX and p-ATM” value [4] was “little to no effect”.
